Measured values from patent publication US11649396B2, “Associative copolymers with hydrophobic quaternized (meth)acrylamide and (meth)acrylic acid derivatives” (BASF SE, priority 2018, dated 2023).

Experiment: Solubility tests of monomer 1 with auxiliary surfactants (additives) in the monomer solution
Format: physicochemical
Conditions: recipe 27 mol % sodium acrylate, 72.9 mol % acrylamide, 0.1 mol % 1; for Result (solubility of monomer 1 with additive): additive 2-20 eq relative to 1
Text: In order to solubilize monomer 1 the monomer was first dissolved in ethanol and then added to the monomer solution.
These tests were done in first instance with 0.1 mol % of 1.

Result (solubility of monomer 1 with additive)	Result (solubility of monomer 1 without additive) (no additive)	SMILES
Not soluble**	–	CCCCCCCCCCCCN(CCC(=O)[O-])CCC(=O)O.[Na+] [Deriphat 160 C, Sodium-N-lauryl-R-iminodipropionate]
–	Not soluble**	C=C(C)C(=O)OCCC[N+](C)(C)CCCCCCCCCCCC [Monomer 1]
Not soluble**	–	CCCCCCCCCCCCCCC(O)C[N+](C)(C)CCO.[Cl-] (stereo not shown) [Dehyquart E-CA, (2-hydroxyethyl)(2-hydroxyhexadecyl)dimethylammonium chloride]

SMILES	Result (solubility of monomer 1 with additive)	Result (solubility of monomer 1 without additive) (no additive)
CCCCCCCCCCCCCC[N+](C)(C)C.[Br-] [Monomer C14TAB, Tetradecyltrimethylammonium bromide, reference compound]	Not soluble**	–
